Read-outs that look alike come from different tables or passages of the source.
What was measured:
Type in all cases: biochemical
Human Tyk2 kinase domain = Human Tyk2 kinase domain (Homo sapiens (Human), UniProt P29597); experiment: Tyk2 Inhibition Assay (Example A, Omnia kinase fluorescence peptide substrate assay); conditions: TYK2 Enzyme IC50 1 mM ATP, averaged IC50 ranges
Excerpt: (§1) The assays described in Examples A, B, C and D for the determination of Tyk2, JAK1, JAK2 and JAK3 kinase activity, respectively, utilized the Omnia® Kinase fluorescence peptide substrate-based technology (Invitrogen). The specific components of the assay mixture are described in Examples A, B, C and D. In these assays, Mg^2+ is chelated upon phosphorylation of the Omnia peptide by the kinase to form a bridge between the chelation-enhanced fluorophore Sox and the phosphate, resulting in an increase in fluorescence emission at 485 nm when excited at […]. The reactions were therefore read at excitation 360 nm and emission was measured at 485 nm every 50 seconds for 45 minutes using a PerkinElmer EnVision Multilabel Plate Reader.
(§2) The final buffer conditions for Tyk2, JAK1, JAK2, and JAK3 assays were as follows: 25 mM HEPES, pH 7.4, 10 mM MgCl2, 0.01% Triton X-100 and 1 mM DTT.
(§3) Two-μL aliquots of these were transferred to a fresh plate for a ten-fold intermediate dilution with assay buffer. Five-μL aliquots of the diluted compounds were then transferred to 20-μL of assay mixtures described in Examples A, B, C and D for a final concentration of DMSO of 2%. […] For each plate, percent of control (POC) values were calculated for each well according to the following equation: […]
(§4) IC50's were estimated from the POC's using a standard 4-parameter logistic model:
(§5) The IC50 is defined as the concentration of inhibitor at which the POC equals 50 for the fitted curve.
Compounds of Formula I were screened for their ability to inhibit Tyk2 using the general enzyme inhibition assay method, in which the assay mixture contained 1 mM ATP, 8 μM Omnia Y12 peptide (Catalog # IVGN KPZ3121C; Invitrogen Corporation, Carlsbad, Calif.) and 1 nM Tyk2 in a total volume of 25 μL. Human Tyk2 kinase domain, comprising amino acids 886 to 1187 with 10 additional histidine residues (histidine tag) on the carboxy terminus, was expressed and purified from bacculovirus in-house at Array BioPharma Inc. (Boulder, Colo.). The histidine tag was cleaved after purification using standard conditions.

JAK1 = JAK1 (Homo sapiens (Human), UniProt P23458); experiment: JAK1 Inhibition Assay (Example B, Omnia kinase fluorescence peptide substrate assay)
Excerpt: as §1, §2, §3, §4, §5
(§6) Compounds of Formula I were screened for their ability to inhibit JAK1 using the general enzyme inhibition assay method, in which the assay mixture contained 1 mM ATP, 8 μM Omnia® Y12 peptide (Catalog # IVGN KPZ3121C; Invitrogen Corporation, Carlsbad, Calif.) and 12.5 nM JAK1 in a total volume of 25 μL. JAK1 was purchased from Invitrogen Corporation, Carlsbad, Calif. (catalog # IVGN PV4775).

JAK2 = JAK2 (Homo sapiens (Human), UniProt O60674); experiment: JAK2 Inhibition Assay (Example C, Omnia kinase fluorescence peptide substrate assay); conditions: JAK2 Enzyme IC50 1 mM ATP, averaged IC50 ranges
Excerpt: as §1, §2, §3, §4, §5
as §6, with “JAK2” for “JAK1”, “10” for “8”, “Y7” for “Y12”, “KNZ3071C,” for “KPZ3121C;”, “4” for “12.5”, “PV4288).” for “PV4775).”

JAK3 = JAK3 (Homo sapiens (Human), UniProt P52333); experiment: JAK3 Inhibition Assay (Example D, Omnia kinase fluorescence peptide substrate assay)
Excerpt: as §1, §2, §3, §4, §5
as §6, with “JAK3” for “JAK1”, “10” for “8”, “Y7” for “Y12”, “KNZ3071C,” for “KPZ3121C;”, “2” for “12.5”, “PV4080).” for “PV4775).”

[1] = JAK1 Enzyme IC50 1 mM ATP, 1 mM ATP, averaged IC50 ranges

JAK3, sequence (P52333 whole entry): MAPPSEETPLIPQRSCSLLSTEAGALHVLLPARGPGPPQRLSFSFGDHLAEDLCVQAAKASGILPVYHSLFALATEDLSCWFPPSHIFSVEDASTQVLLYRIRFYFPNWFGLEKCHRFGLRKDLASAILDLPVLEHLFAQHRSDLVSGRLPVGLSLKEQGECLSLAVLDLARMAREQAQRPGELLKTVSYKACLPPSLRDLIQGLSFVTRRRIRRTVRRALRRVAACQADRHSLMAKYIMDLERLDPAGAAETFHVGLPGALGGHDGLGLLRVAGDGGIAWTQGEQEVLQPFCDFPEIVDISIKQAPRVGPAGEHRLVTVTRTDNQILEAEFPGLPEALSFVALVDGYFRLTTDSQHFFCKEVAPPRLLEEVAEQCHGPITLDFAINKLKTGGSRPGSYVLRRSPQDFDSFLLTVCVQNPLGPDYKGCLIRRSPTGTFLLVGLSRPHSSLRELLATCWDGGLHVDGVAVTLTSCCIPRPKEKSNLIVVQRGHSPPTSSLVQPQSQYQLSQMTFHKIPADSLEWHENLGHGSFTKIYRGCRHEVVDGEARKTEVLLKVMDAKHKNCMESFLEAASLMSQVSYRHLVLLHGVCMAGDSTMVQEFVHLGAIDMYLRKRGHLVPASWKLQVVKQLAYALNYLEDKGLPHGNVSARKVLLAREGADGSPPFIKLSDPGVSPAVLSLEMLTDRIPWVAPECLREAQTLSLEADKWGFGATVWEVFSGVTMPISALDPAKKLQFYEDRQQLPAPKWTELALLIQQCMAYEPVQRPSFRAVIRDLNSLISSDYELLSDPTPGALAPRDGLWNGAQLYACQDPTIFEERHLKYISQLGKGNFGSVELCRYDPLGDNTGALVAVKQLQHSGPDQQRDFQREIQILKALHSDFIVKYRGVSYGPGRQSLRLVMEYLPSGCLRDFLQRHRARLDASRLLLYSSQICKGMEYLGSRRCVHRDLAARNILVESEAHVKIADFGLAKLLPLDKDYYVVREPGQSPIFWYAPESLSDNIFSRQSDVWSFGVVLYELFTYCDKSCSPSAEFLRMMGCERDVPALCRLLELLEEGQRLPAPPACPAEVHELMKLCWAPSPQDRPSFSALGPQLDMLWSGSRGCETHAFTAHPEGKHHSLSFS
JAK2, sequence (O60674 whole entry): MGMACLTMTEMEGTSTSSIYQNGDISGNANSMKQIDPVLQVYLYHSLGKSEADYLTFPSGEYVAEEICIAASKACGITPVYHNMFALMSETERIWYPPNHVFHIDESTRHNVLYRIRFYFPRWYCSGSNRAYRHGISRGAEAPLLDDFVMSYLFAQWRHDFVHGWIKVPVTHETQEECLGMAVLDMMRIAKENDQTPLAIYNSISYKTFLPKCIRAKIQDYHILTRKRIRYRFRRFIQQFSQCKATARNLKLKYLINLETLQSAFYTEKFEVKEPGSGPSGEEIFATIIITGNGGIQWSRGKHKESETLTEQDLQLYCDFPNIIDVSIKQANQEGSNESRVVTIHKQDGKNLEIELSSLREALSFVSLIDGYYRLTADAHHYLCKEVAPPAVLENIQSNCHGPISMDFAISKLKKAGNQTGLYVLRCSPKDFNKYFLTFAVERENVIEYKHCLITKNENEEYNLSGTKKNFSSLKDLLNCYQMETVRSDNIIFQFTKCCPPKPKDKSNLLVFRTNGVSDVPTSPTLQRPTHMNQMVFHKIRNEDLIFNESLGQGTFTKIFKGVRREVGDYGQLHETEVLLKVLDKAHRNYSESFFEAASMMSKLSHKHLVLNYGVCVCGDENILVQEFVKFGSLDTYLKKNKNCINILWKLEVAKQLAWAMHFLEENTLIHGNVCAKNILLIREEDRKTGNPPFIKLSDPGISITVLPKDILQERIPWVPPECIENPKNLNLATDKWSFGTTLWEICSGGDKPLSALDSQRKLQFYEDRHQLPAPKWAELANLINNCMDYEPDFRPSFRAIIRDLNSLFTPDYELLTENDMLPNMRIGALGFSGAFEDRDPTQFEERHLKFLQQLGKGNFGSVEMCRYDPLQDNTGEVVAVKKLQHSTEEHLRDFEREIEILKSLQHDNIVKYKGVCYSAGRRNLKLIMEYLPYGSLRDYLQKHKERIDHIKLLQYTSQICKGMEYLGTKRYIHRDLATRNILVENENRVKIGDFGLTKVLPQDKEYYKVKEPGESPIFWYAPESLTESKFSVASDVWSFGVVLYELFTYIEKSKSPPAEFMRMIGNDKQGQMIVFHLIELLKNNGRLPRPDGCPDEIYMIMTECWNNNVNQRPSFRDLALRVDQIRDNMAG
Human Tyk2 kinase domain, sequence (P29597 886-1187): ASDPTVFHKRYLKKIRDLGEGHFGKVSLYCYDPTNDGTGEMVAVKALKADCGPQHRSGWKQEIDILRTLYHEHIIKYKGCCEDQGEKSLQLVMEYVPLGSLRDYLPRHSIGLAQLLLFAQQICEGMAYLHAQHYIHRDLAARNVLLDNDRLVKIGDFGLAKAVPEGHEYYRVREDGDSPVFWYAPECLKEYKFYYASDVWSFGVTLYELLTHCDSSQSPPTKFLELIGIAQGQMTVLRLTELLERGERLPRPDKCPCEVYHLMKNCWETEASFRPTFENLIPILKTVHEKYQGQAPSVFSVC
JAK1, sequence (P23458 whole entry): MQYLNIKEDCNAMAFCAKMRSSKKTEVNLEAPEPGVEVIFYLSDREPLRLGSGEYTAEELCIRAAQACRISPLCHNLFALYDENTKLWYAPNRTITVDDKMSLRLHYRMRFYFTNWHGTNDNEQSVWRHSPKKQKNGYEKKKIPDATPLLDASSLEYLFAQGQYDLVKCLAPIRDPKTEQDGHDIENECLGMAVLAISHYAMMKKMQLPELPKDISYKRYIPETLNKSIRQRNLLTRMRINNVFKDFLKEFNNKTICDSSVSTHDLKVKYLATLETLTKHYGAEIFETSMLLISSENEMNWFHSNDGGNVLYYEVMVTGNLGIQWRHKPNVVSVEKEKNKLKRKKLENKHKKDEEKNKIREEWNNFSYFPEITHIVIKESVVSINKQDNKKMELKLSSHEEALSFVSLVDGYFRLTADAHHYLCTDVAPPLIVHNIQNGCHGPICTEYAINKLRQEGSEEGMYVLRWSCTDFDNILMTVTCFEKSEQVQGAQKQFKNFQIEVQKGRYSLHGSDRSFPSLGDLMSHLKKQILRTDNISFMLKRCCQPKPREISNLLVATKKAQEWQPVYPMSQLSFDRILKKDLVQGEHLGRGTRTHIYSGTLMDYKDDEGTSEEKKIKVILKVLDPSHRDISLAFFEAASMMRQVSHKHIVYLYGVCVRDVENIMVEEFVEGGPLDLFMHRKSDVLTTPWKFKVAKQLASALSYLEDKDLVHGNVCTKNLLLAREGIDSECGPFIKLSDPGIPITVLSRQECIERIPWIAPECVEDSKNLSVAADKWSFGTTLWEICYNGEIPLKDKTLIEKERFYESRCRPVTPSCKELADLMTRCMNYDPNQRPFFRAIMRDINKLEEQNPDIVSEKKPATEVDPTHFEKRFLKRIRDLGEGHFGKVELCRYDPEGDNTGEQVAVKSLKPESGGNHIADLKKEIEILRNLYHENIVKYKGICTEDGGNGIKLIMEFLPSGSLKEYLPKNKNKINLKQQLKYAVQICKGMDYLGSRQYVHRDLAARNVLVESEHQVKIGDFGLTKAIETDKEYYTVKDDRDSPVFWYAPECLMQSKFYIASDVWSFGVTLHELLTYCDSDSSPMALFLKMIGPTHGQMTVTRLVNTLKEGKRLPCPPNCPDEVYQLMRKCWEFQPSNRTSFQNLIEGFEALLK

SMILES	IC50 (Human Tyk2 kinase domain)	IC50 (JAK1)	IC50 (JAK2)	IC50 (JAK3)	IC50 (JAK1; [1])
CCC(CC)n1cc(-c2nc(-c3cnn([C@@H](C)[C@@H](O)CO)c3)cn3nccc23)cn1 (single isomer, unassigned) [Example 91]	10 to 100 nM	100 to 1000 nM	10 to 100 nM	1000 to 10000 nM	–
CCC(CC)n1cc(-c2nc(-c3cnn([C@H]4C[C@@H](O)C4)c3)cn3nccc23)cn1 [Example 119, cis-3-(4-(4-(1-(pentan-3-yl)-1H-pyrazol-4-yl)pyrazolo[1,5-a]pyrazin-6-yl)-1H-pyrazol-1-yl)cyclobutanol]	< 10 nM	–	10 to 100 nM	1000 to 10000 nM	100 to 1000 nM
CCC(CC)n1cc(-c2nc(-c3cnn(CC4(CO)COC4)c3)cn3nccc23)cn1 [Example 16, (3-((4-(4-(1-(pentan-3-yl)-1H-pyrazol-4-yl)pyrazolo[1,5-a]pyrazin-6-yl)-1H-pyrazol-1-yl)methyl)oxetan-3-yl)methanol]	10 to 100 nM	10 to 100 nM	10 to 100 nM	1000 to 10000 nM	–
CC(C)C[C@@H](C)n1cc(-c2nc(-c3cnn(C(CO)CO)c3)cn3nccc23)cn1 [Example 88, (R)-2-(4-(4-(1-(4-methylpentan-2-yl)-1H-pyrazol-4-yl)pyrazolo[1,5-a]pyrazin-6-yl)-1H-pyrazol-1-yl)propane-1,3-diol]	100 to 1000 nM	1000 to 10000 nM	100 to 1000 nM	1000 to 10000 nM	–
CC[C@H](C)n1cc(-c2nc(-c3cnn(C(CO)CO)c3)cn3nccc23)cn1 [Example 84, (S)-2-(4-(4-(1-(sec-butyl)-1H-pyrazol-4-yl)pyrazolo[1,5-a]pyrazin-6-yl)-1H-pyrazol-1-yl)propane-1,3-diol]	10 to 100 nM	10 to 100 nM	10 to 100 nM	1000 to 10000 nM	–
CCC(CC)n1cc(-c2nc(-c3cnn(C4CN(C(=O)C(C)C)C4)c3)cn3nccc23)cn1 [Example 42, 2-methyl-1-(3-(4-(4-(1-(pentan-3-yl)-1H-pyrazol-4-yl)pyrazolo[1,5-a]pyrazin-6-yl)-1H-pyrazol-1-yl)azetidin-1-yl)propan-1-one]	10 to 100 nM	1000 to 10000 nM	10 to 100 nM	1000 to 10000 nM	–
CCC(CC)n1cc(-c2nc(-c3cnn(CC(O)CN)c3)cn3nccc23)cn1 (centres unmarked) [Example 98, 1-amino-3-(4-(4-(1-(pentan-3-yl)-1H-pyrazol-4-yl)pyrazolo[1,5-a]pyrazin-6-yl)-1H-pyrazol-1-yl)propan-2-ol]	10 to 100 nM	–	10 to 100 nM	1000 to 10000 nM	1000 to 10000 nM
CCC(CC)n1cc(-c2nc(-c3cnn(C4CN(C(=O)C5CC5)C4)c3)cn3nccc23)cn1 [Example 43, cyclopropyl(3-(4-(4-(1-(pentan-3-yl)-1H-pyrazol-4-yl)pyrazolo[1,5-a]pyrazin-6-yl)-1H-pyrazol-1-yl)azetidin-l-yl)methanone]	10 to 100 nM	1000 to 10000 nM	10 to 100 nM	1000 to 10000 nM	–
CCC(CC)n1cc(-c2nc(-c3cnn(CC(O)C(C)C)c3)cn3nccc23)cn1 (centres unmarked) [Example 113, 3-methyl-1-(4-(4-(1-(pentan-3-yl)-1H-pyrazol-4-yl)pyrazolo[1,5-a]pyrazin-6-yl)-1H-pyrazol-1-yl)butan-2-ol]	10 to 100 nM	1000 to 10000 nM	100 to 1000 nM	1000 to 10000 nM	–
CCC(CC)n1cc(-c2nc(-c3cnn(CCCN(C)C)c3)cn3nccc23)cn1 [Example 12, N,N-dimethyl-3-(4-(4-(1-(pentan-3-yl)-1H-pyrazol-4-yl)pyrazolo[1,5-a]pyrazin-6-yl)-1H-pyrazol-1-yl)propan-1-amine]	100 to 1000 nM	1000 to 10000 nM	100 to 1000 nM	1000 to 10000 nM	–
CC[C@H](C)n1cc(-c2nc(-c3cnn(C[C@@H](O)CO)c3)cn3nccc23)cn1 [Example 68, (R)-3-(4-(4-(1-((S)-sec-butyl)-1H-pyrazol-4-yl)pyrazolo[1,5-a]pyrazin-6-yl)-1H-pyrazol-1-yl)propane-1,2-diol]	10 to 100 nM	–	10 to 100 nM	1000 to 10000 nM	100 to 1000 nM

Next, values leading:

IC50 (Human Tyk2 kinase domain)	IC50 (JAK1)	IC50 (JAK2)	IC50 (JAK3)	IC50 (JAK1; [1])	SMILES
10 to 100 nM	1000 to 10000 nM	10 to 100 nM	1000 to 10000 nM	–	CCC(CC)n1cc(-c2nc(-c3cnn(C4CN(C(=O)[C@H]5C[C@H](O)C5)C4)c3)cn3nccc23)cn1 [Example 179, (trans-3-hydroxycyclobutyl)(3-(4-(4-(1-(pentan-3-yl)-1H-pyrazol-4-yl)pyrazolo[1,5-a]pyrazin-6-yl)-1H-pyrazol-1-yl)azetidin-1-yl)methanone]
10 to 100 nM	–	10 to 100 nM	1000 to 10000 nM	100 to 1000 nM	CCC(CC)n1cc(-c2nc(-c3cnn([C@@H](C)[C@H](C)O)c3)cn3nccc23)cn1 (single isomer, unassigned) [Example 155]
10 to 100 nM	100 to 1000 nM	10 to 100 nM	1000 to 10000 nM	–	CCC(CC)n1cc(-c2nc(-c3cnn(C4CN(C(=O)C(=O)N(C)C)C4)c3)cn3nccc23)cn1 [Example 182, N,N-dimethyl-2-oxo-2-(3-(4-(4-(1-(pentan-3-yl)-1H-pyrazol-4-yl)pyrazolo[1,5-a]pyrazin-6-yl)-1H-pyrazol-1-yl)azetidin-1-yl)acetamide]
10 to 100 nM	1000 to 10000 nM	10 to 100 nM	1000 to 10000 nM	–	CCC(CC)n1cc(-c2nc(-c3cnn(CCN4CC(F)C4)c3)cn3nccc23)cn1 [Example 138, 6-(1-(2-(3-fluoroazetidin-1-yl)ethyl)-1H-pyrazol-4-yl)-4-(1-(pentan-3-yl)-1H-pyrazol-4-yl)pyrazolo[1,5-a]pyrazine]
10 to 100 nM	–	10 to 100 nM	1000 to 10000 nM	100 to 1000 nM	CCC(CC)n1cc(-c2nc(-c3cnn([C@H]4C[C@H](O)C4)c3)cn3nccc23)cn1 [Example 161, trans-3-(4-(4-(1-(pentan-3-yl)-1H-pyrazol-4-yl)pyrazolo[1,5-a]pyrazin-6-yl)-1H-pyrazol-1-yl)cyclobutanol]
10 to 100 nM	100 to 1000 nM	10 to 100 nM	1000 to 10000 nM	–	CCC(CC)n1cc(-c2nc(-c3cnn([C@H]4C[C@H](C(N)=O)C4)c3)cn3nccc23)cn1 [Example 167, (1r,3r)-3-(4-(4-(1-(pentan-3-yl)-1H-pyrazol-4-yl)pyrazolo[1,5-a]pyrazin-6-yl)-1H-pyrazol-1-yl)cyclobutanecarboxamide]
10 to 100 nM	1000 to 10000 nM	10 to 100 nM	1000 to 10000 nM	–	CCC(CC)n1cc(-c2nc(-c3cnn(C4CN(C(=O)[C@H]5C[C@@H](O)C5)C4)c3)cn3nccc23)cn1 [Example 178, (cis-3-hydroxycyclobutyl)(3-(4-(4-(1-(pentan-3-yl)-1H-pyrazol-4-yl)pyrazolo[1,5-a]pyrazin-6-yl)-1H-pyrazol-1-yl)azetidin-1-yl)methanone]
10 to 100 nM	–	10 to 100 nM	1000 to 10000 nM	100 to 1000 nM	CC[C@H](C1CC1)n1cc(-c2nc(-c3cnn(C(CO)CO)c3)cn3nccc23)cn1 [Example 215, (R)-2-(4-(4-(1-(1-cyclopropylpropyl)-1H-pyrazol-4-yl)pyrazolo[1,5-a]pyrazin-6-yl)-1H-pyrazol-1-yl)propane-1,3-diol]
10 to 100 nM	1000 to 10000 nM	10 to 100 nM	1000 to 10000 nM	–	CCC(CC)n1cc(-c2nc(-c3cnn(C[C@H](N)C(C)(C)O)c3)cn3nccc23)cn1 [Example 183, (S)-3-amino-2-methyl-4-(4-(4-(1-(pentan-3-yl)-1H-pyrazol-4-yl)pyrazolo[1,5-a]pyrazin-6-yl)-1H-pyrazol-1-yl)butan-2-ol]

Source: patent US10189845B2, “4,6-substituted-pyrazolo[1,5-a]pyrazines as janus kinase inhibitors” (ARRAY BIOPHARMA INC., priority 2014, dated 2019)
